Earlier results as cited in patent publication US20060122127A1, “Methods for reducing the side effects associated with mirtzapine treatment” (Cypress Bioscience, Inc., priority 2004, published 2006).

What was measured:
[1] = obese patients
[2] = test system: clonic seizures induced by subcutaneous pentylenetetrazol; settings: animals
[3] = test system: tonic extension seizures induced by maximal electroshock; settings: animals
[4] = 100-200 mg/d, patients with neuropathic pain

Row | patients with weight gain of greater than or equal to 7% of body weight (controlled studies (placebo 0%)) [%] | patients reporting appetite increase (controlled studies (placebo 2%)) [%] | SMILES | loss of body weight ([1]; 32 week extension phase (placebo 1.8% loss)) [%] | reduction of body weight ([1]; following 16 weeks of therapy (placebo 1% loss)) [%] | anticonvulsant activity against clonic seizures [2] | anticonvulsant activity against tonic extension seizures [3] | patients whose subjective ratings of pain improved by at least 50% [4] [%]
1 | 5.9 | 6 | CN(C)CCC=C1c2ccccc2CCc2ccccc21 [amitriptyline] |  |  |  |  | 
2 |  |  | NS(=O)(=O)Cc1noc2ccccc12 [zonisamide, 1,2-benzisoxazole-3-methanesulfonamide] | 9.4 | 6 | ineffective | effective | 59
